In publication doi:10.1101/2021.08.24.457553v1 (biorxiv, 2021):
Values belong to the compound of their own block, whether it stands above or below them.

Columns and labels:
PfPKG [1] = molecular target: T1, PfPKG (Plasmodium falciparum, UniProt Q8I719); experiment: in vitro PfPKG kinase inhibition assay; format: biochemical; details: […] compound
PfPKG [2] = molecular target: T1, PfPKG; experiment: in vitro PfPKG kinase inhibition assay; format: biochemical
in vitro [3] = experiment: in vitro; design: species or system primary non-human primate hepatocytes; details: monkey, primary hepatocytes
in vitro [4] = experiment: in vitro; design: species or system primary non-human primate hepatocytes; details: monkey, primary hepatocytes; remark: listed apart in the source
P. berghei = experiment: microbe, parasite or virus in culture; details: Plasmodium berghei, HepG2, read-out: % inhibition
[5] = liver microsomes
2C9 = 2C9 (Homo sapiens, UniProt P11712); experiment: biochemical
2C9, sequence (P11712 whole entry): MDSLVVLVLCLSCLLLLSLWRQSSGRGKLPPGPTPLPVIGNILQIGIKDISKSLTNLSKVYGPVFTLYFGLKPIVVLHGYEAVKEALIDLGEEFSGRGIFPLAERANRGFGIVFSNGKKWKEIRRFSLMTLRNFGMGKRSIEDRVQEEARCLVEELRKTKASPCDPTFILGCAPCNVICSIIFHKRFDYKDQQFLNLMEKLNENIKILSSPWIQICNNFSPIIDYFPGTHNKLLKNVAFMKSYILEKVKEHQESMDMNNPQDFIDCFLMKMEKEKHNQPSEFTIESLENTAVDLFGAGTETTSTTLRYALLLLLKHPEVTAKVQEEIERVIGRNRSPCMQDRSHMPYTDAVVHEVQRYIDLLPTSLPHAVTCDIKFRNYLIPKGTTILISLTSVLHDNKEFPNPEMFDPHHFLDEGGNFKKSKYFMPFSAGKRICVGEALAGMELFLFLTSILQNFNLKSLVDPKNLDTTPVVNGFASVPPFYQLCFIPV

2D6 = 2D6 (Homo sapiens, UniProt P10635); experiment: biochemical
2D6, sequence (P10635 whole entry): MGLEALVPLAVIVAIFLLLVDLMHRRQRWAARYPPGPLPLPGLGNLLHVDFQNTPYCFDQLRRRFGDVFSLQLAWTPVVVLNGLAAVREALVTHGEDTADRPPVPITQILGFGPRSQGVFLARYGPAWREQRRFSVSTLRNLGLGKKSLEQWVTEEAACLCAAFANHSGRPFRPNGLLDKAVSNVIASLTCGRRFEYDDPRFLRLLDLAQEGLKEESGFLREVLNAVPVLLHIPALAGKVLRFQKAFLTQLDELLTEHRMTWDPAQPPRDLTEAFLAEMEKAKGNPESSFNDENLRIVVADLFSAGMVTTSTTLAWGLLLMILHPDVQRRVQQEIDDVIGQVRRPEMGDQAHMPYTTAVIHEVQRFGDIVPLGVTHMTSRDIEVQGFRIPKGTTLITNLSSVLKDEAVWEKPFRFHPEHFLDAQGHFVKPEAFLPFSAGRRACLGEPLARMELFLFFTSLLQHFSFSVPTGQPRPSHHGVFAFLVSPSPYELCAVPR

[6] = liver microsomes; remark: listed apart in the source
CYP3A4 = CYP3A4 (Homo sapiens, UniProt P08684); experiment: in vitro CYP3A4 inhibition; format: cell-based
CYP3A4, sequence (P08684 2-503): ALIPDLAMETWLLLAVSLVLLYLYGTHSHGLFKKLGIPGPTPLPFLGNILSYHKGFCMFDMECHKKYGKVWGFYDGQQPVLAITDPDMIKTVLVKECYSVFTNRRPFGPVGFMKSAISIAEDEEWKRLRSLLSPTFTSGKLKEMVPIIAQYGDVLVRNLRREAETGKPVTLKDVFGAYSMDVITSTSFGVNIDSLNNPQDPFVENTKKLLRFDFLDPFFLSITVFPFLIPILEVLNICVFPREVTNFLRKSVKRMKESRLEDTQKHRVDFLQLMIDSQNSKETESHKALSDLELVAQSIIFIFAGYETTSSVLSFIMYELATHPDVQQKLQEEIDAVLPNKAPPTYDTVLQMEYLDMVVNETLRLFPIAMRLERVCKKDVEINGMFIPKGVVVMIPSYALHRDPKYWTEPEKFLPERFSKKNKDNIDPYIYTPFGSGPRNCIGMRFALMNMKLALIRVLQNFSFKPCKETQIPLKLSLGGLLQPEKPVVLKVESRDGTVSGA

hERG = hERG (Homo sapiens, UniProt Q12809); details: HEK293, 10 µM
hERG, sequence (Q12809 whole entry): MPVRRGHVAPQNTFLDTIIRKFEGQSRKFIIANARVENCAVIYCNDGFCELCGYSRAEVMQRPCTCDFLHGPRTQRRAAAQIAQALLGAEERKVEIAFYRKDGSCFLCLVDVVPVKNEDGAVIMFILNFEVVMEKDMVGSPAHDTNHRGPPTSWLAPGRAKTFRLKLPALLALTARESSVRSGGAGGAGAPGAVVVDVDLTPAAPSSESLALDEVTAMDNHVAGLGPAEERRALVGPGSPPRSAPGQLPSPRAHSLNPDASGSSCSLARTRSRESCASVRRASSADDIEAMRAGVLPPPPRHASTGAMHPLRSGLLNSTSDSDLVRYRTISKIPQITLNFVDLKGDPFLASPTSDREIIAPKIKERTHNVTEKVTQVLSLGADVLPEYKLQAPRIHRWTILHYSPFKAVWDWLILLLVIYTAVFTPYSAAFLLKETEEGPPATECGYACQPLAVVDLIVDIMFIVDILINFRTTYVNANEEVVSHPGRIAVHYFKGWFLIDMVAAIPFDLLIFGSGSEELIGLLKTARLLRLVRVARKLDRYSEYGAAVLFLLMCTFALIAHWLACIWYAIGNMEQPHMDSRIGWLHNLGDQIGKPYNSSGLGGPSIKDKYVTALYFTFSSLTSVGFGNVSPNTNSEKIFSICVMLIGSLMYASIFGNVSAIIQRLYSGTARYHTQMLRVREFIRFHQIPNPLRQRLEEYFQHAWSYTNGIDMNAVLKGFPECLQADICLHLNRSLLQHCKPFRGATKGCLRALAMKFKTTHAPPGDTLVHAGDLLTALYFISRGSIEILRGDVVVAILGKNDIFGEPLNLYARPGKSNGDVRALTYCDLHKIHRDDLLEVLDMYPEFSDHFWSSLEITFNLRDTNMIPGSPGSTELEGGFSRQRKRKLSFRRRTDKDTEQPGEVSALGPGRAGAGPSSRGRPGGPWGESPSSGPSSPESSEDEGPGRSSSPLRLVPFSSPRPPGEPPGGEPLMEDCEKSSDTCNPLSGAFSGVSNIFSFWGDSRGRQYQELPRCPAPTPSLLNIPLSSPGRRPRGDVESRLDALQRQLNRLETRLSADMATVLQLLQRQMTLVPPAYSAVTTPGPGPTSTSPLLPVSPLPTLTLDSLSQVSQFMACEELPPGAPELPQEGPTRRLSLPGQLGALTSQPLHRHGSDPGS

PfPKG [7] = molecular target: T1, PfPKG; experiment: in vitro PfPKG kinase inhibition assay; format: biochemical; details: […] compound; remark: listed apart in the source

T1 sequence (Q8I719 whole entry): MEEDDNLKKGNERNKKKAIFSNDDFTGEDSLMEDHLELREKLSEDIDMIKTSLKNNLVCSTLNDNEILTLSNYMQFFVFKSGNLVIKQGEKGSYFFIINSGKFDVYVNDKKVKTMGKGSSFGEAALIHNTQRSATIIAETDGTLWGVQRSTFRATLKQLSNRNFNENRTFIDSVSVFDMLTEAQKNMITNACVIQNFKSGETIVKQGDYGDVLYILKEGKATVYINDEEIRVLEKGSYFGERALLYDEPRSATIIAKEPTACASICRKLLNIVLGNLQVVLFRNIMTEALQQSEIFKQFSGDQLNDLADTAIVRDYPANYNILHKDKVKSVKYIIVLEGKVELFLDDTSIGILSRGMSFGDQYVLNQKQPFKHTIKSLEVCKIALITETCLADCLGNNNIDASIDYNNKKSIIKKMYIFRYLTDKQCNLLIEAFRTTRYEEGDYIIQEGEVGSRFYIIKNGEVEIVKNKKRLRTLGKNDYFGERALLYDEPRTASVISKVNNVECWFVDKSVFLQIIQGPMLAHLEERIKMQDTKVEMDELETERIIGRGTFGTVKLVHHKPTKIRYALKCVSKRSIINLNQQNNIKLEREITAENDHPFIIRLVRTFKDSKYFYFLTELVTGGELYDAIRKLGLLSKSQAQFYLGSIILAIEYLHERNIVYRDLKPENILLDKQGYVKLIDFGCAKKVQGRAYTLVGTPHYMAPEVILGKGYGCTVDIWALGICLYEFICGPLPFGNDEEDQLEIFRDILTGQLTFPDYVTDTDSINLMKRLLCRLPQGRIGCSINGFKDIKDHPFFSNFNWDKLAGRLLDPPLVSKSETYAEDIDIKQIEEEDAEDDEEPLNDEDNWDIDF

% inh @ 1 uM (PfPKG [1]): 4%
Compound: Cc1cn(-c2ccnc(NC3CCCN(C(=O)c4nccs4)C3)n2)c(-c2ccccc2)n1 (racemic) [10d]

IC50 (PfPKG [2]): 320 nM | MLM t1/2 [5]: < 2 min | IC50 (2C9): > 10000 nM | IC50 (2D6): > 10000 nM | HLM t1/2 [6]: < 2 min
Compound: Cc1cn(-c2ccnc(N[C@@H]3CCN(C(=O)c4nccs4)C3)n2)c(-c2ccccc2)n1 [10a]
CC50 at 96 h (in vitro [3]): > 20000 nM | CC50 at 96 h (in vitro [4]): > 20000 nM | inhibition at 2 µM (P. berghei): 78 ± 20% | inhibition at 10 µM (P. berghei): 89 ± 7%

IC50 (PfPKG [2]): 1000 nM
Compound: Cc1cn(-c2ccnc(N[C@@H]3CCN(C(=O)c4ccn(C)n4)C3)n2)c(-c2ccccc2)n1 [10b]

% inh @ 1 uM (PfPKG [1]): 4%
Compound: Cc1cn(-c2ccnc(N[C@H]3CCN(C(=O)c4nccs4)C3)n2)c(-c2ccccc2)n1 [10c]

IC50 (PfPKG [2]): 100 nM | IC50 (CYP3A4): < 300 nM | MLM t1/2 [5]: < 2 min | HLM t1/2 [6]: 4.8 min
Compound: O=C(c1nccs1)N1CC[C@@H](Nc2nccc(-n3cc(C4CC4)nc3-c3ccccc3)n2)C1 [14a]
hERG % inh. @ 10 uM (hERG): 1%

IC50 (PfPKG [2]): 60 nM | IC50 (CYP3A4): < 300 nM | MLM t1/2 [5]: <2 min | HLM t1/2 [6]: 3.7 min
Compound: O=C(c1nccs1)N1CC[C@@H](Nc2nccc(-n3cc(C4CC4)nc3-c3cccc(Cl)c3)n2)C1 [14b]
CC50 at 96 h (in vitro [3]): > 20000 nM | CC50 at 96 h (in vitro [4]): > 20000 nM | inhibition at 2 µM (P. berghei): 94 ± 3% | inhibition at 10 µM (P. berghei): 93 ± 3% | hERG % inh. @ 10 uM (hERG): 9%

IC50 (PfPKG [2]): 86 nM
Compound: COc1cccc(-c2nc(C)cn2-c2ccnc(N[C@@H]3CCN(C(=O)c4nccs4)C3)n2)c1 [18a]

% inhib @ 1 uM (PfPKG [7]): 47%
Compound: Cc1cn(-c2ccnc(N[C@@H]3CCN(C(=O)c4nccs4)C3)n2)c(-c2ccccc2Cl)n1 [18b]

IC50 (PfPKG [2]): 1160 nM
Compound: Cc1cn(-c2ccnc(N[C@@H]3CCN(C(=O)c4nccs4)C3)n2)c(-c2ccc(Cl)cc2)n1 [18c]

IC50 (PfPKG [2]): 150 nM
Compound: Cc1cn(-c2ccnc(N[C@@H]3CCN(C(=O)c4nccs4)C3)n2)c(-c2cccc(OC(F)(F)F)c2)n1 [18d]
